Consider 36 compounds from BindingDB's records for doi:10.1016/s0960-894x(02)00585-1 (Corvas International, 2002).

A word on the Ki: it is the dissociation constant of the complex between target and ligand, obtained from inhibition or displacement. Read a low Ki as higher affinity.

A value given as a limit tells only on which side of the number the result lay.

For the assay, the target named is Prothrombin (Homo sapiens, UniProt P00734). Put plainly: In vitro inhibitory activity against human Thrombin (FIIa) cleavage of the chromogenic substrate.
On to `Cc1ccc(NS(=O)(=O)Cc2ccccc2)c(=O)n1CC(=O)NCc1ccc2c(N)[nH]nc2c1`, for which affinity was put at a Ki of 224 nM. Regarding `Cc1cnc(NCCc2ccccc2)c(=O)n1CC(=O)NCc1ccc2[nH]nc(O)c2c1`, the Ki is 33 nM. As to `Cc1ccc(NS(=O)(=O)c2ccc3c(c2)CCO3)c(=O)n1CC(=O)NCc1ccc2[nH]ncc2c1`, the Ki amounted to 3.9 nM.

Turning to `Cc1ccc(NS(=O)(=O)Cc2ccc(Cl)cc2)c(=O)n1CC(=O)NCc1ccc2[nH]cnc2c1`, the Ki turned out to be 6.5 nM. In the case of `Cc1cnc(NCC2(c3ccc(F)cc3)CC2)c(=O)n1CC(=O)NCc1ccc2c(N)noc2c1`, the Ki worked out at 16 nM.

In the case of `Cc1ccc(NS(=O)(=O)Cc2ccccc2)c(=O)n1CC(=O)NCc1ccc2c(N)noc2n1`, the affinity corresponds to a Ki of 203 nM. In the case of `Cc1cnc(NCC2(c3ccc(F)cc3)CC2)c(=O)n1CC(=O)NCc1ccc2[nH]nc(N)c2c1`, the affinity corresponds to a Ki of 15 nM.

In turn, `Cc1cnc(NCC(c2ccccc2)c2ccccc2)c(=O)n1CC(=O)NCc1ccc2c(N)noc2c1` yielded a Ki of 31 nM. `Cc1ccc(NS(=O)(=O)Cc2ccccc2)c(=O)n1CC(=O)NCc1ccc2[nH]nc(N)c2c1`: affinity was put at a Ki of 73 nM. In turn, `Cc1cnc(NCCc2ccccc2)c(=O)n1CC(=O)NCc1ccc2c(N)noc2c1` showed a Ki of 82 nM.

Turning to `Cc1cc2cn[nH]c2cc1CNC(=O)Cn1c(C)ccc(NS(=O)(=O)Cc2ccccc2)c1=O`, the Ki came out at 271 nM. Then `Cc1cnc(NCCc2ccc3c(c2)CCC3)c(=O)n1CC(=O)NCc1ccc2[nH]ccc2c1`, with 30 nM; and `Cc1ccc(NS(=O)(=O)Cc2ccccc2)c(=O)n1CC(=O)NCc1ccc2c(N)noc2c1`, with 74 nM. For the compound `Cc1cnc(NCCc2ccc3c(c2)CCC3)c(=O)n1CC(=O)NCc1ccc2c(ccn2N)c1`, the affinity corresponds to a Ki of 12400 nM. The compound `Cc1cnc(NCC(F)(F)c2ccccc2)c(=O)n1CC(=O)NCc1ccc2[nH]nc(N)c2c1` yielded an inhibition constant Ki of 4.1 nM.

As to `Cc1cnc(NCC2(c3ccccc3)CCC2)c(=O)n1CC(=O)NCc1ccc2[nH]nc(O)c2c1`, the affinity, expressed as Ki, was 10 nM. `Cc1n[nH]c2ccc(CNC(=O)Cn3c(C)cnc(NCCc4ccccc4)c3=O)cc12` showed a Ki of 444 nM. `Cc1cnc(NCCc2ccccc2)c(=O)n1CC(=O)NCc1ccc2nc(N)sc2c1` registered a Ki above 3970 nM.

As for `Cc1cnc(NC[C@H](C)c2ccccc2)c(=O)n1CC(=O)NCc1ccc2[nH]ncc2c1`, the Ki was 5.7 nM. Then `Cc1cnc(NCCc2ccc(F)cc2)c(=O)n1CC(=O)NCc1ccc2c(N)noc2c1`, with 18 nM; and `Cc1cnc(NCCc2ccc3c(c2)CCO3)c(=O)n1CC(=O)NCc1ccc2[nH]ncc2c1`, with 2.9 nM. Compound `Cc1cnc(NCCc2ccccn2)c(=O)n1CC(=O)NCc1ccc2[nH]ncc2c1` gave an inhibition constant (Ki) of 3.1 nM.

In turn, `Cc1ccc(NS(=O)(=O)Cc2ccccc2)c(=O)n1CC(=O)NCc1ccc2c(N)[nH]nc2n1` returned a Ki of 1590 nM.

`Cc1ccc(NS(=O)(=O)c2ccc3c(c2)CCO3)c(=O)n1CC(=O)NCc1ccc2c[nH]nc2c1` returned a Ki of 1320 nM. Then `COc1cccc(CCNc2ncc(C)n(CC(=O)NCc3ccc4[nH]ncc4c3)c2=O)c1`, with 10 nM. `COc1ccc(CCNc2ncc(C)n(CC(=O)NCc3ccc4[nH]cnc4c3)c2=O)cc1`: the affinity corresponds to a Ki of 5 nM. Then `COc1ccc(C2(CNc3ncc(C)n(CC(=O)NCc4ccc5[nH]nc(N)c5c4)c3=O)CC2)cc1`, with 9 nM.

Compound `Cc1nc(N)ccc1CNC(=O)Cn1c(C)ccc(NS(=O)(=O)Cc2ccccc2)c1=O` [L-374087] displayed a Ki of 0.7 nM. With `Cc1cnc(NCC2(c3ccccn3)CC2)c(=O)n1CC(=O)NCc1ccc2c(N)noc2c1`, the affinity corresponds to a Ki of 26 nM. In turn, `Cc1cnc(NC[C@@H](C)c2ccccc2)c(=O)n1CC(=O)NCc1ccc2[nH]cnc2c1` registered a Ki of 9.3 nM. Then `Cc1cnc(NCCc2ccccc2)c(=O)n1CC(=O)NCc1ccc2[nH]ncc2c1`, with 18 nM; and `Cc1cnc(NCC(F)(F)c2ccccc2)c(=O)n1CC(=O)NCc1ccc2c(N)noc2c1`, with 2.5 nM; and `CCc1cnc(NCCc2ccccc2)c(=O)n1CC(=O)NCc1ccc2[nH]ccc2c1`, with 24 nM. Then `Cc1cnc(NCCc2ccccc2)c(=O)n1CC(=O)NCc1ccc2[nH]nnc2c1`, with 224 nM; and `Cc1nc2cc(CNC(=O)Cn3c(C)cnc(NCCc4ccccc4)c3=O)ccc2[nH]1`, with above 3970 nM. As for `Cc1ccc(NS(=O)(=O)c2ccc3c(c2)CCO3)c(=O)n1CC(=O)NCc1ccc2[nH]nc(N)c2c1`, the figure is 29 nM.
